15 compounds from US12370192B2, “Azole-fused pyridazin-3(2H)-one derivatives” (TAKEDA PHARMACEUTICAL COMPANY LIMITED, priority 2019, dated 2025) can be followed below.

The target of test [1] is T1, human GPR139 receptor (Homo sapiens, UniProt Q6DWJ6).
T1 construct: expressed in transfected cells; host or cells: T-REx-CHO (Thermo Fisher Scientific), doxycycline-induced
T1 sequence (Q6DWJ6 1-353): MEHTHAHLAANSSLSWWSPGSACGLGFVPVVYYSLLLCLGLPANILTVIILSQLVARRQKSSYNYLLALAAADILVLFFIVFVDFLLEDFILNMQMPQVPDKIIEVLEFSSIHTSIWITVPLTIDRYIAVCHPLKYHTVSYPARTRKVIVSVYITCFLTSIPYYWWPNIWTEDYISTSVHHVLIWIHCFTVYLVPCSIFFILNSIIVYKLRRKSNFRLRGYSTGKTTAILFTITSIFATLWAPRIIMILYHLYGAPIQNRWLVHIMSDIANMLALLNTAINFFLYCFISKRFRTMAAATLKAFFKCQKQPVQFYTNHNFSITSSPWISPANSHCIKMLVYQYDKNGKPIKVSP
Nature of the test: GPR139 Competition Binding (membrane-based, tritium-labeled ligand). The conditions noted are these: T-REx-CHO membranes with human GPR139; 6.5 nM tritium-labeled ligand; 11-point curve, 30 μM maximum concentration; read-out: GPR139 Binding Affinity (pKi) (converted). Here is the method: OPR139 Competition Binding
This membrane-based assay measures the ability of compounds to competitively bind GPR139 in stably transfected TREx™-CHO membranes. To prepare the membranes, T-REx™-CHO (Thermo Fisher Scientific®) cells are stably expressed with human GPR139 receptor, whose expression is controlled by a tetracycline-inducible element. The cells are cultured in medium containing F-12K nutrient mixture-Kaighn's modification, 10% tetracycline-free FBS, Blasticidin S HCl (10 μg/mL) and Hygromycin B (200 μg/mL). GPR139 receptor expression is induced for 18 hours with 2 μg/mL doxycycline (Sigma D9891) in growth media. After addition of doxycycline, cells are harvested in PBS and pelleted by centrifugation for 5 minutes at 200×G. Liquid is aspirated off and cells are resuspended in ice cold lysis buffer (20 mM HEPES/5 mM EDTA pH 7.4/1× Roche® protease inhibitor). Samples are vortexed until homogenous and then placed on ice and homogenized using a Dounce homogenizer at 50% power (3 cycles, 10 strokes per cycle). Lysate is centrifuged at 4° C. for 10 minutes in a tabletop Sorvall® centrifuge at 2000×G. The supernatant is recovered and centrifuged in a Sorvall® ultracentrifuge at 35,000 rpm for 30 minutes at 4° C. The supernatant is discarded, and the remaining pellet resuspended in lysis buffer (20 mM HEPES/0.1 mM EGTA/Roche® protease inhibitor). Membrane protein concentration is determined using Thermo Fisher® BCA quantification kit and is aliquoted into microtubes. Tubes are snap frozen in liquid nitrogen and stored at −80° C. Prior to use, the membranes are removed from cold storage, thawed to room temperature, vortexed until homogenous and diluted in assay buffer (20 mM HEPES pH 7.3, 5 mM MgCl2, 1 mM CaCl2), 1× Thermo Scientific® Halt™ protease inhibitor (78429)).
The assay is run in 96-well, polypropylene, v-bottom plates (Greiner Bio-One® 651201). Test compound in DMSO is added to the wells of each plate (11-point dose response curve, 30 μM maximum concentration, 3-fold serial dilution). A fixed amount of tritium-labeled ligand, (S)-2-(2,3-dimethyl-7-oxothieno[2,3-d]pyridazin-6(7H)-yl)-N-(1-(4-methoxyphenyl-2-t)propan-2-yl)acetamide (Quotient Bioresearch) in assay buffer (6.5 nM assay concentration) is added to each well of the assay plate, which is then agitated on a plate shaker for 30 seconds. Next, a fixed amount of membranes in assay buffer (2 μg membranes) is added to each well of the assay plate, which is then spun for 30 seconds at 300 rpm in a tabletop Eppendorf centrifuge, and then incubated at room temperature for 20 minutes. Using a Tomtec harvester, the contents of the assay plate are transferred to Filtermat A (PerkinElmer® No. 1450-421) which prior to use is pre-soaked in 0.5% PEI (Sigma P3143) for 3 hours and dried at room temperature overnight. Following transfer, the Filtermat is washed 5 times with cold wash buffer (20 mM HEPES pH 7.3, 100 mM NaCl). The Filtermat is dried using a microwave oven and placed in a sample bag (PerkinElmer® No. 1450-432) with a scintillator sheet (PerkinElmer® No. 1450-411). The scintillator sheet is melted to the Filtermat using a heat block set to 65° C., placed in a MicroBeta® cartridge and read using a MicroBeta® scintillation counter. Binding curves are generated with a four-parameter logistic equation using GraphPad Prism® 6 and the inhibition constant Ki is reported as pKi.

Test [2] addresses T1, human GPR139 receptor. Nature of the test: Measurement of GPR139 Activation Via Calcium Signaling (FLIPR, T-REx-CHO cells). The class given is cell-based. The conditions noted are these: T-REx-CHO cells stably expressing human GPR139, 11-point dose response, 10 μM maximum concentration, read-out: GPR139 Potency (pEC50) (converted). How it is done: Measurement of GPR139 Activation Via Calcium Signaling
This cell-based assay measures the ability of compounds to activate GPR139 in stably transfected T-REx™-CHO cells. T-REx™-CHO cells (Thermo Fisher Scientific®) are stably expressed with human GPR139 receptor, whose expression is controlled by a tetracycline-inducible element. The cells are cultured in medium containing F-12K nutrient mixture-Kaighn's modification, TripleLE™ Express (1×)-phenol red, Dulbecco's phosphate-buffered saline (1×), 10% tetracycline-free FBS, Blasticidin S HCl (10 μg/mL) and Hygromycin B (200 μg/mL). The cells are introduced into the wells of a 384-well black clear bottom plate (Costar®) at 10,000 cells/well. GPR139 receptor expression is induced with 2 μg/mL doxycycline (Sigma D9891). The plate is allowed to stand at room temperature for 10-30 minutes and then incubated at 37° C. and 5% CO2 for 17 hours prior to assay.
Culture media is removed from cells and 45 μL of 1× calcium dye (2.5 mM) is added to each well and incubated at 37° C. and 5% CO2 for 40 minutes. The plate is removed from the incubator and allowed to stand at RT for 20 minutes without a plate cover prior to measurement of calcium signaling. The calcium dye is prepared by adding 10 mL of assay buffer (Hank's Balanced Salt Solution (1×), 1 mM HEPES at pH 7.4) to one vial of calcium dye (FLIPR® Calcium 5 Assay Kit; Molecular Devices) at room temperature, vortexing the mixture until homogenous, and transferring the dye to a 250 mL flask using 10 mL of assay, buffer to rinse the vial. The dye is subsequently transferred to a conical flask, which is filled to the 200 mL mark with assay buffer, and 1 mL of […] probenecid solution (142.68 mg/mL in 1M NaOH aq) is added.
Example compounds suspended in DMSO are received from compound management in microtiter plates (0.25 μL/well) and are diluted in assay buffer (25 μL). Following incubation of the cell plate, the Example compounds are added to the cells (11-point dose response, 10 μM maximum concentration) using a FLIPR® Tetra system (Molecular Devices) and fluorescence is measured continuously for 1 minute. EC50 curves are generated with a four-parameter logistic equation using GraphPad Prism® 6, and activation of GPR139 for each example compound is reported as pEC50.

Turning to `Cc1nn(CC(=O)N[C@@H](C)c2ccc(OC(F)(F)F)cc2)c(=O)c2c1cnn2C(C)(C)C` [Example 15, (S)-2-(1-(tert-butyl)-4-methyl-7-oxo-1,7-dihydro-6H-pyrazolo[3,4-d]pyridazin-6-yl)-N-(1-(4-(trifluoromethoxy)phenyl)ethyl)acetamide], at human GPR139 receptor [1], the Ki is 57.5 nM. Also, at human GPR139 receptor [2], the EC50 was 617 nM.

As to `Cc1ccc([C@H](C)NC(=O)Cn2nc(C)c3cnn(C(C)(C)C)c3c2=O)c(F)c1` [Example 16, (S)-2-(1-(tert-butyl)-4-methyl-7-oxo-1,7-dihydro-6H-pyrazolo[3,4-d]pyridazin-6-yl)-N-(1-(2-fluoro-4-methylphenyl)ethyl)acetamide], at human GPR139 receptor [1], the Ki is 11 nM. The EC50 at human GPR139 receptor [2] is 200 nM.

Turning to `COc1ccc([C@H](C)NC(=O)Cn2ncc3c(c(C)nn3C(C)C)c2=O)cc1` [Example 17, (S)-2-(1-isopropyl-3-methyl-4-oxo-1,4-dihydro-5H-pyrazolo[3,4-d]pyridazin-5-yl)-N-(1-(4-methoxyphenyl)ethyl)acetamide], on human GPR139 receptor [1], the Ki was 2950 nM. In addition, the EC50 on human GPR139 receptor [2] was 57.5 nM.

Take `COc1ccc([C@H](C)NC(=O)Cn2ncc3c(c(C4CC4)nn3C(C)C)c2=O)cc1` [Example 18, (S)-2-(3-cyclopropyl-1-isopropyl-4-oxo-1,4-dihydro-5H-pyrazolo[3,4-d]pyridazin-5-yl)-N-(1-(4-methoxyphenyl)ethyl)acetamide]: the Ki at human GPR139 receptor [1] is 355 nM. The EC50 at human GPR139 receptor [2] is 170 nM.

For `COc1ccc([C@H](C)NC(=O)Cn2ncc3c(c(C)nn3C)c2=O)c(F)c1` [Example 19, (S)-2-(1,3-dimethyl-4-oxo-1,4-dihydro-5H-pyrazolo[3,4-d]pyridazin-5-yl)-N-(1-(2-fluoro-4-methoxyphenyl)ethyl)acetamide], on human GPR139 receptor [1], the Ki is 1070 nM. For the same compound, the EC50 at human GPR139 receptor [2] is 67.6 nM.

For `Cc1ccc([C@H](C)NC(=O)Cn2nc(C)c3c(C)nn(C)c3c2=O)cc1` [Example 20, (S)—N-(1-(p-tolyl)ethyl)-2-(1,3,4-trimethyl-7-oxo-1,7-dihydro-6H-pyrazolo[3,4-d]pyridazin-6-yl)acetamide], on human GPR139 receptor [1], the Ki was 178 nM. Moreover, the EC50 at human GPR139 receptor [2] is 41.7 nM.

On to `Cc1ccc([C@H](C)NC(=O)Cn2nc(C)c3c(C)nn(C(C)C)c3c2=O)cc1` [Example 21, (S)-2-(1-isopropyl-3,4-dimethyl-7-oxo-1,7-dihydro-6H-pyrazolo[3,4-d]pyridazin-6-yl)-N-(1-(p-tolyl)ethyl)acetamide], for which the Ki on human GPR139 receptor [1] is 28.2 nM. In addition, the EC50 on human GPR139 receptor [2] is 115 nM.

As for `Cc1ccc([C@H](C)NC(=O)Cn2nc(C)c3c(C)nn(C4CC4)c3c2=O)cc1` [Example 22, (S)-2-(1-cyclopropyl-3,4-dimethyl-7-oxo-1,7-dihydro-6H-pyrazolo[3,4-d]pyridazin-6-yl)-N-(1-(p-tolyl)ethyl)acetamide], the Ki on human GPR139 receptor [1] was 9.12 nM. The EC50 on human GPR139 receptor [2] is 105 nM.

Regarding `Cc1ccc([C@H](C)NC(=O)Cn2ncc3c(C)nn(C(C)C)c3c2=O)cc1` [Example 23], on human GPR139 receptor [1], the Ki was 102 nM. Besides, at human GPR139 receptor [2], the EC50 is 166 nM.

Regarding `Cc1nn(C2CC2)c2cnn(CC(=O)N[C@@H](C)c3ccc(Cl)cc3F)c(=O)c12` [Example 24, (S)—N-(1-(4-chloro-2-fluorophenyl)ethyl)-2-(1-cyclopropyl-3-methyl-4-oxo-1,4-dihydro-5H-pyrazolo[3,4-d]pyridazin-5-yl)acetamide], the Ki on human GPR139 receptor [1] is 97.7 nM. On human GPR139 receptor [2], the EC50 is 46.8 nM.

As for `Cc1nn(C2CC2)c2cnn(CC(=O)N[C@@H](C)c3cccc(F)c3)c(=O)c12` [Example 25, (S)-2-(1-cyclopropyl-3-methyl-4-oxo-1,4-dihydro-5H-pyrazolo[3,4-d]pyridazin-5-yl)-N-(1-(3-fluorophenyl)ethyl)acetamide], the Ki at human GPR139 receptor [1] was 617 nM. The EC50 at human GPR139 receptor [2] was 23.4 nM.

As to `Cc1ccc(C)c([C@H](C)NC(=O)Cn2ncc3c(c(C)nn3C3CC3)c2=O)c1` [Example 26, (S)-2-(1-cyclopropyl-3-methyl-4-oxo-1,4-dihydro-5H-pyrazolo[3,4-d]pyridazin-5-yl)-N-(1-(2,5-dimethylphenyl)ethyl)acetamide], the Ki at human GPR139 receptor [1] is 38900 nM. Also, the EC50 at human GPR139 receptor [2] was 933 nM.

In the case of `Cc1ccc([C@H](C)NC(=O)Cn2ncc3c(C)nn(C)c3c2=O)cc1` [Example 27, (S)-2-(1,3-dimethyl-7-oxo-1,7-dihydro-6H-pyrazolo[3,4-d]pyridazin-6-yl)-N-(1-(p-tolyl)ethyl)acetamide], on human GPR139 receptor [1], the Ki is 219 nM. On human GPR139 receptor [2], the EC50 is 240 nM.

With `Cc1ccc([C@H](C)NC(=O)Cn2ncc3c(C)nn(C4CC4)c3c2=O)cc1` [Example 28, (S)-2-(1-cyclopropyl-3-methyl-7-oxo-1,7-dihydro-6H-pyrazolo[3,4-d]pyridazin-6-yl)-N-(1-(p-tolyl)ethyl)acetamide], the Ki at human GPR139 receptor [1] is 32.4 nM. Besides, the EC50 at human GPR139 receptor [2] is 52.5 nM.

Take `Cc1ccc([C@H](C)NC(=O)Cn2nc(C)c3c(ncn3C)c2=O)cc1` [Example 29, (S)-2-(1,7-dimethyl-4-oxo-1,4-dihydro-5H-imidazo[4,5-d]pyridazin-5-yl)-N-(1-(p-tolyl)ethyl)acetamide]: the Ki at human GPR139 receptor [1] was 30200 nM. Moreover, the EC50 at human GPR139 receptor [2] was 513 nM.
